In one assay the test system is SKOV3 cells. Put plainly: Serum starved proliferation assay on the ovarian carcinoma SKOV3 cells (C3). To be noted: Homo sapiens, SK-OV-3, 72 h, EGF stimulated (100 ng/ml, 72 hours, serum free) or 72 hours with compounds; MTT cell viability assay; read-out: SKOV3 cell (C3): pIC50 (converted). It counts as cell-based. Summed up: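 SKOV3 cells grown 24 h in 10% FCS, then treated with compound under serum-free conditions (37 °C, 5% CO2) and stimulated 72 h with EGF at 100 ng/ml final; read-out by MTT viability. Alternative format: compound for 72 h after the same 24 h FCS step, also by MTT.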

In the next assay the target is EGFR (Homo sapiens, UniProt P00533). Put plainly: In vitro inhibition of EGFR, Flash Plate or glass-fiber filter technology (C2). The format is biochemical. Further details: 0.5 μg EGFR-kinase domain/well. As to conditions: EGFR-kinase domain, 5.0 μM unlabeled ATP, read-out: Kinase activity.(C2): pIC50 (converted). The method, boiled down: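 EGFR kinase domain (0.5 μg/well) phosphorylated poly(GT) with 5.0 μM ATP plus AT^33P, dose response 1·10^−6 to 1·10^−10 M. Flash Plate: biotin-poly(GT), Tris pH 8.0, 30° C, 60 min, scintillation counting. Filter: Tris pH 7.5 with MnCl2, 25° C, 10 min, 33P counted on glass-fiber filter by phosphorimaging.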
Chain of EGFR (P00533 712-979 limits assumed): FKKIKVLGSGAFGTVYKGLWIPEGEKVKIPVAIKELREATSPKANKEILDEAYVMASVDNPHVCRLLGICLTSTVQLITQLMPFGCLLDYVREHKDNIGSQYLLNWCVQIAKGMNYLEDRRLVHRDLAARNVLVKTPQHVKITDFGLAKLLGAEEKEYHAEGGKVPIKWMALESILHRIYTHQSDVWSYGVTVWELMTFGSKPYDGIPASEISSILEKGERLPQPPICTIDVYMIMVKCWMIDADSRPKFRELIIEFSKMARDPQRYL

Take `COc1cc2ncnc3c2cc1OCC(=O)NC(CO)C(=O)NCc1ccc(Cl)cc1N3` (stereo not shown) [Compound 129, 4,6-ethanediylidenepyrimido[4,5-b][6,1,9,12]benzoxatriazacyclopentadecine-9,12(8H,13H)-dione, 17-chloro-10,11,14,19-tetrahydro-11-(hydroxymethyl)-20-methoxy-]: the IC50 in the assay with SKOV3 cells was 3980 nM; on EGFR, 1580 nM.

For the compound `COc1cc2ncnc3c2cc1OCCCC(=O)NC(CO)C(=O)NCc1ccc(Cl)cc1N3` (stereo not shown) [Compound 130, 4,6-ethanediylidenepyrimido[4,5-b][6,1,11,14]benzoxatriazacycloheptadecine-11,14(8H,15H)-dione, 19-chloro-9,10,12,13,16,21-hexahydro-13-(hydroxymethyl)-22-methoxy-], the IC50 was 126 nM with SKOV3 cells and 25.1 nM on EGFR.

For `COc1cc2ncnc3c2cc1OCCCC(=O)NC(C)C(=O)NCc1ccc(Cl)cc1N3` (stereo not shown) [Compound 131, 4,6-ethanediylidenepyrimido[4,5-b][6,1,11,14]benzoxatriazacycloheptadecine-11,14(8H,15H)-dione, 19-chloro-9,10,12,13,16,21-hexahydro-22-methoxy-13-methyl-], the IC50 with SKOV3 cells is 100 nM; at EGFR, 25.1 nM.

For `COc1cc2ncnc3c2cc1OCC(=O)N1CC(O)CC1C(=O)NCc1ccc(Cl)cc1N3` (stereo not shown) [Compound 133, 9,11-ethanediylidenepyrimido[4,5-b]pyrrolo[1,2-i][6,1,9,12]benzoxatriazacyclopentadecine-14,19(5H,13H)-dione, 3-chloro-16,17,18,18a,20,21-hexahydro-17-hydroxy-22-methoxy-], the results for the IC50 in the assay with SKOV3 cells and at EGFR were 7940 nM and 1580 nM, respectively.

With `COc1cc2ncnc3c2cc1OCCCCC(=O)N1CCCC1C(=O)NCc1ccc(Cl)cc1N3` (stereo not shown) [Compound 134, 4,6-ethanediylidene-8H-pyrimido[4,5-b]pyrrolo[1,2-l][6,1,12,15]benzoxatriazacyclooctadecine-12,17(18H)-dione, 22-chloro-9,10,11,14,15,16,16a,19,24-nonahydro-25-methoxy-], the IC50 with SKOV3 cells was 794 nM; on EGFR, 398 nM.

In the case of `COc1cc2ncnc3c2cc1OCC(=O)NC(C)(C)C(=O)NCCc1ccc(Cl)cc1N3` [Compound 135, 4,6-ethanediylidene-8H-pyrimido[4,5-b][6,1,9,12]benzoxatriazacyclohexadecine-9,12-dione, 18-chloro-10,11,13,14,15,20-hexahydro-21-methoxy-11,11-dimethyl-], the IC50 was 1000 nM in the assay with SKOV3 cells and 3980 nM at EGFR.

With `COc1cc2ncnc3c2cc1OCCCCC(=O)NC(CC(C)C)C(=O)NCc1ccc(Cl)cc1N3` (stereo not shown) [Compound 136, 4,6-ethanediylidene-8H-pyrimido[4,5-b][6,1,12,15]benzoxatriazacyclooctadecine-12,15(16H)-dione, 20-chloro-9,10,11,13,14,17,22-heptahydro-23-methoxy-14-(2-methylpropyl)-], the IC50 was 251 nM in the assay with SKOV3 cells and 631 nM on EGFR.

Take `COc1cc2ncnc3c2cc1OCCCCC(=O)NC(C)(C)C(=O)NCc1ccc(Cl)cc1N3` [Compound 137, 4,6-ethanediylidene-8H-pyrimido[4,5-b][6,1,12,15]benzoxatriazacyclooctadecine-12,15(16H)-dione, 20-chloro-9,10,11,13,14,17,22-heptahydro-23-methoxy-14,14-dimethyl-]: the IC50 in the assay with SKOV3 cells and on EGFR was 251 nM each time.

Turning to `COc1cc2ncnc3c2cc1OCCCCC(=O)NC(Cc1ccccc1)C(=O)NCc1ccc(Cl)cc1N3` (stereo not shown) [Compound 138, 4,6-ethanediylidene-8H-pyrimido[4,5-b][6,1,12,15]benzoxatriazacyclooctadecine-12,15(16H)-dione, 20-chloro-9,10,11,13,14,17,22-heptahydro-23-methoxy-14-(phenylmethyl)-], the IC50 in the assay on SKOV3 cells is 631 nM; at EGFR it was 2000 nM.

As to `COc1cc2ncnc3c2cc1OCC(=O)N1CCCC1C(=O)NCCc1ccc(Cl)cc1N3` (stereo not shown) [Compound 140, 1,21-ethanediylidene-5H-pyrimido[4,5-b]pyrrolo[1,2-i][6,1,9,12]benzoxatriazacyclohexadecine-13,18(19H)-dione, 7-chloro-10,11,12,13a,14,15,16-heptahydro-23-methoxy-], the IC50 in the assay on SKOV3 cells and at EGFR was 200 nM throughout.

Turning to `COc1cc2ncnc3c2cc1OCC(=O)NC(CC(C)C)C(=O)NCCc1ccc(Cl)cc1N3` (stereo not shown) [Compound 141, 4,6-ethanediylidene-8H-pyrimido[4,5-b][6,1,9,12]benzoxatriazacyclohexadecine-9,12-dione, 18-chloro-10,11,13,14,15,20-hexahydro-21-methoxy-11-(2-methylpropyl)-], the values for the IC50 with SKOV3 cells and at EGFR were 1580 nM and 794 nM, respectively.

For the compound `COc1cc2ncnc3c2cc1OCC(=O)NC(C(C)O)C(=O)NCCc1ccc(Cl)cc1N3` (stereo not shown) [Compound 142, 4,6-ethanediylidene-8H-pyrimido[4,5-b][6,1,9,12]benzoxatriazacyclohexadecine-9,12-dione, 18-chloro-10,11,13,14,15,20-hexahydro-11-(1-hydroxyethyl)-21-methoxy-], the IC50 in the assay on SKOV3 cells is 631 nM; at EGFR, 100 nM.

Consider `COc1cc2ncnc3c2cc1OCCCC(=O)NC(CC(C)C)C(=O)NCc1ccc(Cl)cc1N3` (stereo not shown) [Compound 143, 4,6-ethanediylidenepyrimido[4,5-b][6,1,11,14]benzoxatriazacycloheptadecine-11,14(8H,15H)-dione, 19-chloro-9,10,12,13,16,21-hexahydro-22-methoxy-13-(2-methylpropyl)-], for which the results for the IC50 in the assay on SKOV3 cells and at EGFR were 200 nM and 501 nM, respectively.

Take `COc1cc2ncnc3c2cc1OCCCC(=O)NC(C)(C)C(=O)NCc1ccc(Cl)cc1N3` [Compound 144, 4,6-ethanediylidenepyrimido[4,5-b][6,1,11,14]benzoxatriazacycloheptadecine-11,14(8H,15H)-dione, 19-chloro-9,10,12,13,16,21-hexahydro-22-methoxy-13,13-dimethyl-]: the IC50 was 126 nM with SKOV3 cells and 158 nM on EGFR.

With `COc1cc2ncnc3c2cc1OCCCC(=O)NC(Cc1ccccc1)C(=O)NCc1ccc(Cl)cc1N3` (stereo not shown) [Compound 145, 4,6-ethanediylidenepyrimido[4,5-b][6,1,11,14]benzoxatriazacycloheptadecine-11,14(8H,15H)-dione, 19-chloro-9,10,12,13,16,21-hexahydro-22-methoxy-13-(phenylmethyl)-], the IC50 with SKOV3 cells was 251 nM; at EGFR, 200 nM.

Turning to `COc1cc2ncnc3c2cc1OCCCC(=O)NC(C(C)O)C(=O)NCc1ccc(Cl)cc1N3` (stereo not shown) [Compound 146, 4,6-ethanediylidenepyrimido[4,5-b][6,1,11,14]benzoxatriazacycloheptadecine-11,14(8H,15H)-dione, 19-chloro-9,10,12,13,16,21-hexahydro-13-(1-hydroxyethyl)-22-methoxy-], the values for the IC50 in the assay on SKOV3 cells and at EGFR were 631 nM and 200 nM, respectively.

Turning to `COc1cc2ncnc3c2cc1OCCCCC(=O)NC(C(C)O)C(=O)NCc1ccc(Cl)cc1N3` (stereo not shown) [Compound 147, 4,6-ethanediylidene-8H-pyrimido[4,5-b][6,1,12,15]benzoxatriazacyclooctadecine-12,15(16H)-dione, 20-chloro-9,10,11,13,14,17,22-heptahydro-14-(1-hydroxyethyl)-23-methoxy-], the IC50 in the assay on SKOV3 cells was 251 nM; at EGFR, 126 nM.

For the origin of these results see patent US8394786B2, “Quinazoline derivatives” (Janssen Pharmaceutica N.V., priority 2003, dated 2013).
